What was measured:
[1] = system: Triticum aestivum (spring wheat); assay: Postemergence herbicidal safening in cereal crops; assay type: in vivo; conditions: Table 5, applied alone, after 3 weeks
Method: (§1) Seeds of the desired test plant species were planted in Sun Gro MetroMix® 306 planting mixture, which typically has a pH of 6.0 to 6.8 and an organic matter content of about 30 percent, in plastic pots with a surface area of 103.2 square centimeters. When required to ensure good germination and healthy plants, a fungicide treatment and/or other chemical or physical treatment was applied. The plants were grown for 7-36 days in a greenhouse with an approximate 14 hour photoperiod which was maintained at about 18° C. during the day and 17° C. during the night. Nutrients and water were added on a regular basis and supplemental lighting was provided with overhead metal halide 1000-Watt lamps as necessary. The plants were employed for testing when they reached the second or third true leaf stage. Treatments consisted of compound 42 and cloquintocet-mexyl alone and in combination. Weighed amounts were placed in 25 mL glass vials and dissolved in a volume of 97:3 v/v acetone/DMSO to obtain 9 mg ai/mL stock solutions. […] A dilution solution was prepared by mixing 1 volume of 97:3 v/v acetone/DMSO and 2 volumes of an aqueous mixture containing acetone, water, isopropyl alcohol, DMSO, Agri-dex crop oil concentrate, and Triton® X-77 surfactant in a 64.7:26.0:6.7:2.0:0.7:0.01 v/v ratio. Compound requirements are based upon a 12 mL application volume at a rate of 187 L/ha. […] Formulated compounds were applied to the plant material with an overhead Mandel track sprayer equipped with a […] nozzles calibrated to deliver 187 L/ha over an application area of 0.503 square meters at a spray height of 18 inches (43 cm) above average plant canopy height. Control plants were sprayed in the same manner with the solvent blank. The treated plants and control plants were placed in a greenhouse as described above and watered by sub-irrigation to prevent wash-off of the test compounds. After 3 weeks the condition of the test plants as compared with that of the untreated plants was determined visually and scored on a scale of 0 to 100 percent where 0 corresponds to no injury and 100 corresponds to complete kill. Colby's equation was used to determine the herbicidal effects expected from the mixtures (Colby, S. R. 1967. Calculation of the synergistic and antagonistic response of herbicide combinations. Weeds 15:20-22.). The following equation was used to calculate the expected activity of mixtures containing two active ingredients, A and B: Expected=A+B-(A×B/100) • A=observed efficacy of active ingredient A at the same concentration as used in the mixture. • B=observed efficacy of active ingredient B at the same concentration as used in the mixture.

[2] = system: Hordeum vulgare (winter barley); assay: Postemergence herbicidal safening in cereal crops; assay type: in vivo; conditions: Table 5, applied alone, after 3 weeks
Method: as §1

Papaver rhoeas = assay: Postemergence herbicidal safening in cereal crops; assay type: in vivo; conditions: Table 5, applied alone, after 3 weeks
Method: as §1

Galium aparine = assay: Postemergence herbicidal safening in cereal crops; assay type: in vivo; conditions: Table 5, applied alone, after 3 weeks
Method: as §1

[3] = system: velvetleaf (Abutilon theophrasti); assay: Preemergence herbicidal activity; assay type: in vivo; conditions: Abutilon theophrasti, pre-emergence, 480 h; pre-emergent, 140 g ai/ha, after 20-22 days; read-out: % Control ABUTH
Outline: (§2)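 Seeds sown in 70:30 loam (pH about 8.1, about 1.5% organic matter) and sand mix, then sprayed preemergence at 187 L/ha with a track sprayer; controls received solvent blank. Pots kept in greenhouse, about 15 h photoperiod, about 23-29° C. day and 22-28° C. night, top-irrigated.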

[4] = system: redroot pigweed (Amaranthus retroflexus); assay: Preemergence herbicidal activity; assay type: in vivo; conditions: Amaranthus retroflexus, pre-emergence, 480 h; pre-emergent, 140 g ai/ha, after 20-22 days; read-out: % Control AMARE
Outline: as §2

[5] = system: lambsquarter (Chenopodium album); assay: Preemergence herbicidal activity; assay type: in vivo; conditions: Chenopodium album, pre-emergence, 480 h; pre-emergent, 140 g ai/ha, after 20-22 days; read-out: % Control CHEAL
Outline: as §2

[6] = system: Triticum aestivum (spring wheat); assay: Postemergence herbicidal activity of mixtures in cereal crops; assay type: in vivo; conditions: Table 6, applied alone, 35 g ai/ha, after 3 weeks
Method: (§3) Seeds of the desired test plant species were planted and reared as described in “Evaluation of Postemergence Herbicidal Safening in Cereal Crops” (section 37).
(§4) Treatments consisted of compound (as listed in Tables 6 and 7), fluroxypyr methylheptyl ester (MHE), and clopyralid monoethanolamine (MEA) salt alone and in combination. Weighed amounts were placed in 25 mL glass vials and dissolved in a volume of 97:3 v/v acetone/DMSO to obtain 4.5 mg ai/mL stock solutions. […] The concentrated stock solutions were diluted to 1.5 mg ai/mL with the addition of 2 volumes of an aqueous mixture containing acetone, water, isopropyl alcohol, DMSO, Agri-dex crop oil concentrate, and Triton® X-77 surfactant in a 64.7:26.0:6.7:2.0:0.7:0.01 v/v ratio. A dilution solution was prepared by mixing 1 volume of 97:3 v/v acetone/DMSO and 2 volumes of an aqueous mixture containing acetone, water, isopropyl alcohol, DMSO, Agri-dex crop oil concentrate, and Triton® X-77 surfactant in a 64.7:26.0:6.7:2.0:0.7:0.01 v/v ratio. Compound requirements are based upon a 12 mL application volume at a rate of 187 L/ha. Spray solutions of fluroxypyr MHE, clopyralid MEA, and experimental compound mixtures were prepared by adding the stock solutions to the appropriate amount of dilution solution to form 12 mL spray solution with active ingredients in two- and three-way combinations. Formulated compounds were applied to the plant material with an overhead Mandel track sprayer equipped with a 8002E nozzles calibrated to deliver 187 L/ha over an application area of 0.503 square meters at a spray height of 18 inches (43 cm) above average plant canope. Control plants were sprayed in the same manner with the solvent blank.
(§5) The treated plants and control plants were placed in a greenhouse as described above and watered by sub-irrigation to prevent wash-off of the test compounds. After 3 weeks the condition of the test plants as compared with that of the control plants was determined visually and scored on a scale of 0 to 100 percent where 0 corresponds to no injury and 100 corresponds to complete kill.
(§6) Colby's equation was used to determine the herbicidal effects expected from the mixtures (Colby, S. R. 1967. Calculation of the synergistic and antagonistic response of herbicide combinations. Weeds 15:20-22.).
(§7) The following equation was used to calculate the expected activity of mixtures containing two active ingredients, A and B: Expected=A+B−(A×B/100) • A=observed efficacy of active ingredient A at the same concentration as used in the mixture. • B=observed efficacy of active ingredient B at the same concentration as used in the mixture.
(§8) The following equation was used to calculate the expected activity of mixtures containing three active ingredients, A, B, and C: Expected=A+B+C−(A×B+B×C+A×C)/100+(A×B×C)/10000 • A=observed efficacy of active ingredient A at the same concentration as used in the mixture. • B=observed efficacy of active ingredient B at the same concentration as used in the mixture. • C=observed efficacy of active ingredient C at the same concentration as used in the mixture.

Matricaria chamomilla = assay: as above; assay type: in vivo; conditions: Table 6, applied alone, 35 g ai/ha, after 3 weeks
Method: as §3, §4, §5, §6, §7, §8

[7] = system: Hordeum vulgare (winter barley); assay: as above; assay type: in vivo; conditions: Table 6, applied alone, 35 g ai/ha, after 3 weeks
Method: as §3, §4, §5, §6, §7, §8

[8] = system: velvetleaf (Abutilon theophrasti); assay: Postemergence herbicidal activity; assay type: in vivo; conditions: Abutilon theophrasti, post-emergence, 336 h, post-emergent, 140 g ai/ha, after 14 days; read-out: % Control ABUTH
Outline: (§9)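 Compounds were applied postemergence by track sprayer delivering 187 L/ha, using a mixed organic/aqueous carrier containing crop oil concentrate and surfactant; solvent-blank sprays served as controls. Test plants were at the first to second true leaf stage after 7-21 days' greenhouse growth, were sub-irrigated after treatment, and were evaluated by probit analysis.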

[9] = system: redroot pigweed (Amaranthus retroflexus); assay: Postemergence herbicidal activity; assay type: in vivo; conditions: Amaranthus retroflexus, post-emergence, 336 h, post-emergent, 140 g ai/ha, after 14 days; read-out: % Control AMARE
Outline: as §9

[10] = system: lambsquarter (Chenopodium album); assay: Postemergence herbicidal activity; assay type: in vivo; conditions: Chenopodium album, post-emergence, 336 h, post-emergent, 140 g ai/ha, after 14 days; read-out: % Control CHEAL
Outline: as §9

Row | melting point | SMILES | pest or weed control at 140 g/ha [3] | pest or weed control at 140 g/ha [4] | pest or weed control at 140 g/ha [5] | % Control TRZAS Ob [6] | % Control MATCH Ob (Matricaria chamomilla) | % Control HORVW Ob [7] | pest or weed control at 140 g/ha [8] | pest or weed control at 140 g/ha [9] | pest or weed control at 140 g/ha [10] | further results
1 | – | CCCCCC(C)OC(=O)COc1ccc(Cl)c2cccnc12 (stereo not drawn) [Cloquintocetmexyl, cloquintocet-mexyl] | – | – | – | – | – | – | – | – | – | % Control TRZAS Ob ([1]; 35 g ai/ha): 0%; % Control TRZAS Ob ([1]; 70 g ai/ha): 0%; % Control TRZAS Ob ([1]; 140 g ai/ha): 0%; % Control TRZAS Ob ([1]; 280 g ai/ha): 0%; % Control HORVW Ob ([2]; 35 g ai/ha): 0%; % Control HORVW Ob ([2]; 70 g ai/ha): 0%; % Control HORVW Ob ([2]; 140 g ai/ha): 0%; % Control HORVW Ob ([2]; 280 g ai/ha): 0%; % Control PAPRH Ob (Papaver rhoeas; 35 g ai/ha): 0%; % Control PAPRH Ob (Papaver rhoeas; 70 g ai/ha): 0%; % Control PAPRH Ob (Papaver rhoeas; 140 g ai/ha): 0%; % Control PAPRH Ob (Papaver rhoeas; 280 g ai/ha): 0%; % Control GALAP Ob (Galium aparine; 35 g ai/ha): 0%; % Control GALAP Ob (Galium aparine; 70 g ai/ha): 0%; % Control GALAP Ob (Galium aparine; 140 g ai/ha): 0%; % Control GALAP Ob (Galium aparine; 280 g ai/ha): 0%
2 | 145 to 146 °C | COC(=O)c1nc(-c2ccc(F)c(OC)c2Cl)cc(N)c1Cl [Compound 74, 4-Amino-3-chloro-6-(2-chloro-4-fluoro-3-methoxyphenyl)pyridine-2-carboxylic acid, methyl ester] | 100% | 95% | 95% | 25% | 10% | 0% | 100% | 90% | 100% | –
3 | 167 to 168 °C | COc1c(C)cc(F)c(-c2cc(N)c(Cl)c(C(=O)O)n2)c1F [Compound 93, 4-Amino-3-chloro-6-(2,6-difluoro-3-methoxy-4-methylphenyl)pyridine-2-carboxylic acid] | 100% | 100% | 100% | 15% | 45% | 10% | 100% | 100% | 100% | –

Reference: patent US20070179060A1, “6-(Poly-substituted aryl)-4-aminopicolinates and their use as herbicides” (priority 2006, published 2007)
